# Laboratory results from patent US6448422B1, “Chromogenic compound” (Eli Lilly and Company, priority 2000, dated 2002).
# Target: T1, Hepatic Lipase (Homo sapiens, UniProt P11150)
# T1 sequence (P11150 23-499): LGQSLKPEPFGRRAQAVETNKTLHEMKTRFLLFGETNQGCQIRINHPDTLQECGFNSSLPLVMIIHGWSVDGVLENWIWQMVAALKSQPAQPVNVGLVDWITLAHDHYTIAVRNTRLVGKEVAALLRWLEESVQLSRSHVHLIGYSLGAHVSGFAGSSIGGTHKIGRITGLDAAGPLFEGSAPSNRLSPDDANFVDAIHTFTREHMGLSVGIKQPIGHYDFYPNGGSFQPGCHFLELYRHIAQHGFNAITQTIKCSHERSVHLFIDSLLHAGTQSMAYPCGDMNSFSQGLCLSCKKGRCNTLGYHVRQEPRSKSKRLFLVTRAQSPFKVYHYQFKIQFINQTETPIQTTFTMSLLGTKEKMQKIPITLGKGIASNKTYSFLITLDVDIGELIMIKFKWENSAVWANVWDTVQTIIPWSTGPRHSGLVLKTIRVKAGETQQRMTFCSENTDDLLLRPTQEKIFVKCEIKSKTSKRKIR
# Assay: Hydrolysis of thioPEG and thioPC substrates by Hepatic Lipase (papain thiol detection system, FIG. 1)
# Type: biochemical
# Conditions: 0.5 mM thioPEG (enzyme diluted 100-5000 fold), 1.0 mM thioPC (enzyme diluted 1-64 fold)
# Procedure: Hepatic Lipase enzyme was diluted 1, 32 or 64 fold for thioPC and 100, 500, 1000 or 5000 fold for thioPEG. Hydrolysis was measured by the papain thiol detection system (discussed below). […] Data curve I represents 0.5 mM thioPEG and Data Curve II represents 1.0 mM thioPC.
# The invention also has the additional advantage of requiring fewer incubation periods in order to obtain detectable color. For example as shown in Scheme D below, thioPC substrate requires a reaction coupled with an enzymatic detection process for the liberated thiol-lysophospholipid which has two additional incubation periods in the papain system. L-BAPNA is an abbreviation for N-benzoyl-L-arginine, p-nitroanilide, hydrochloride.
# In Scheme E, below, thioPC is combined with hepatic lipase and incubated for about 30 minutes yielding a free-thiol lysophospholipid. […] Activated papain-SH enzyme is combined with a coloring agent, L-BAPNA, and incubated for 60 minutes yielding a colored product, p-nitro aniline. ThioPEG substrate is an improvement since it requires only a single incubation period to yield detectable color. [drawing 12]
row,Compound,hydrolysis of substrate by Hepatic Lipase (Optical Density at 410 nM vs Relative Enzyme Concentration)
1,"CCCCCCCCCC(=O)O[C@@H](COP(=O)(O)OCCO)CSC(=O)CCCCCCCCC [thioPEG, (1-Decanoylthio-1-deoxy-2-decanoyl-sn-glycero-3-phosphoryl) ethylene glycol]",hydrolyzed much faster than thioPC
2,didecanoyl-thio-phosphatidylcholine [thioPC],much more slowly
